According to ChEMBL document CHEMBL1147997, “Design, synthesis and biological evaluation of new oligopyrrole carboxamides linked with tricyclic DNA-intercalators as potential DNA ligands or topoisomerase inhibitors” (2007):
The source made the active and inactive calls. The calls are words filed in the database; no cut-off is given here.

Columns and labels:
MDA-MB-435 = assay: Growth inhibition of human MDA-MB-435 cells; format: functional
[1] = molecular target: T1, DNA topoisomerase 1 (Homo sapiens) (UniProt P11387); assay: Inhibition of human topoisomerase 1 by DNA relaxation assay
T1 sequence (whole entry): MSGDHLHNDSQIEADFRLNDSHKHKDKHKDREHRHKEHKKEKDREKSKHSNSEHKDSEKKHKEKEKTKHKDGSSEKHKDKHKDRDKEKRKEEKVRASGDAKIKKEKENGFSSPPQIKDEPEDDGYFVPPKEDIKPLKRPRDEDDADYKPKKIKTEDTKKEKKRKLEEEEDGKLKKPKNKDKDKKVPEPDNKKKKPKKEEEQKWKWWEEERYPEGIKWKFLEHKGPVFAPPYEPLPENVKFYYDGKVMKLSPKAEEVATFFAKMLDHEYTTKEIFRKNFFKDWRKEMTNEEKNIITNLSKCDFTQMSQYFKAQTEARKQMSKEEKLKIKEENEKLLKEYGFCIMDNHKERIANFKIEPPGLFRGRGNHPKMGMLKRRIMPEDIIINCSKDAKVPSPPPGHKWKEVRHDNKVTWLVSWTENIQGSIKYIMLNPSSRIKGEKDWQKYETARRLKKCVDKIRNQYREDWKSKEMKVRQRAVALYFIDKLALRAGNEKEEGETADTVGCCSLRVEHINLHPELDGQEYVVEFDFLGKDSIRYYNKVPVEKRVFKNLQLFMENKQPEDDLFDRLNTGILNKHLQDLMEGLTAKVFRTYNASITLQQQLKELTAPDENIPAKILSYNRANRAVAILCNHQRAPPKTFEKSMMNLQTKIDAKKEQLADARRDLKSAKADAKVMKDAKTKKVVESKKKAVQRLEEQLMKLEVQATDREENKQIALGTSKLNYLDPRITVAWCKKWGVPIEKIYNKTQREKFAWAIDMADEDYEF

[2] = Growth inhibition of human NCI-H322 M cells; format: functional; conditions: NCI-H322M
NCI-H460 = assay: Antitumor activity against human NCI-H460 cells at 0.1 uM assessed as cell growth; format: functional
MCF7 = assay: Antitumor activity against human MCF7 cells at 0.1 uM assessed as cell growth; format: functional
SF-268 = assay: Antitumor activity against human SF268 cells at 0.1 uM assessed as cell growth; format: functional
UACC-257 = assay: Growth inhibition of human UACC257 cells; format: functional

| Compound | Activity [1] | Activity (NCI-H460) [%] | Activity (MCF7) [%] | Activity (SF-268) [%] | other results |
| --- | --- | --- | --- | --- | --- |
| CN(C)CCCNC(=O)c1cc(NC(=O)c2cc(NC(=O)CCCN3c4ccccc4C=Cc4ccccc43)cn2C)cn1C | – | – | – | – | GI50 (MDA-MB-435): 57.5 µM |
| CN(C)CCCNC(=O)c1cc(NC(=O)c2cc(NC(=O)CCCN3C(=O)c4cccc5cccc(c45)C3=O)cn2C)cn1C | inactive | – | – | – | – |
| CN(C)CCCNC(=O)c1cc(NC(=O)c2cc(NC(=O)CCCN3C(=O)c4cccc5cc([N+](=O)[O-])cc(c45)C3=O)cn2C)cn1C | inactive | – | – | – | – |
| CN(C)CCCNC(=O)c1cc(NC(=O)c2cc(NC(=O)CCNC(=O)c3c4ccccc4nc4ccccc34)cn2C)cn1C | inactive | – | – | – | – |
| CN(C)CCCNC(=O)c1cc(NC(=O)c2cc(NC(=O)CCNS(=O)(=O)c3ccc4c(c3)C(=O)c3ccccc3C4=O)cn2C)cn1C | – | 84 | 27 | 98 | GI50 [2]: 35.7 µM |
| CN(C)CCCNC(=O)c1cc(NC(=O)c2cc(NC(=O)Cn3c4ccccc4c(=O)c4ccccc43)cn2C)cn1C | inactive | – | – | – | – |
| CN(C)CCCNC(=O)c1cc(NC(=O)c2cc(NC(=O)CCCn3c4ccccc4c(=O)c4ccccc43)cn2C)cn1C | inactive | 47 | 48 | – | – |
| CN(C)CCCNC(=O)c1cc(NC(=O)c2cc(NC(=O)CCn3c4ccccc4c(=O)c4ccccc43)cn2C)cn1C | – | 52 | – | – | – |
| CN(C)CCCNC(=O)c1cc(NC(=O)CCNC(=O)c2ccc3c(c2)C(=O)c2ccccc2C3=O)cn1C | – | 103 | 32 | 113 | – |
| CN(C)CCCNC(=O)c1cc(NC(=O)CCNS(=O)(=O)c2ccc3c(c2)C(=O)c2ccccc2C3=O)cn1C | – | 1 | 1 | 2 | GI50 (UACC-257): 54.4 µM |
